pEC50, pIC50: −log10 of the molar value. The source made the active and inactive calls. No cut-off for these calls is given here.
Target: T1, Cell division protein FtsZ (Escherichia coli K-12) (UniProt P0A9A6)
T1 sequence (whole entry): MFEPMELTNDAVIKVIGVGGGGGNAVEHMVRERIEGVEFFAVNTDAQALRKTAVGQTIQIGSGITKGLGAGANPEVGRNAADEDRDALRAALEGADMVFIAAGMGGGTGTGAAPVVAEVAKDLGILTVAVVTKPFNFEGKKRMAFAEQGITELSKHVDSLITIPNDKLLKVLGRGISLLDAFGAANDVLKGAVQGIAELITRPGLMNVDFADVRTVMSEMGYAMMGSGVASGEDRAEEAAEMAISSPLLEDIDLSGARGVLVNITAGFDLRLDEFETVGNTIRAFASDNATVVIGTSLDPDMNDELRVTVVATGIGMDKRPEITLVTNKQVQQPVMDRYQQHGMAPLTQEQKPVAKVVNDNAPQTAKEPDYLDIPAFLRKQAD
Test: Competitive inhibition of Escherichia coli FtsZ GTPase activity after 5 mins by enzyme-coupled inhibition assay in presence of 10 to 1250 uM GTP

| inhibition | SMILES |
| --- | --- |
| inactive | CCN(CC)CCNc1nc(/C=C/c2ccc(Cl)cc2)nc2cc3ccccc3cc12 |

Target: T2, Cell division protein FtsZ (Escherichia coli K-12, UniProt P0A9A6)
T2 sequence (P0A9A6 whole entry): T1 sequence (whole entry)
Test: Inhibition of Escherichia coli FtsZ GTPase activity after 5 mins by enzyme-coupled inhibition assay

| pIC50 | SMILES |
| --- | --- |
| < 3.89 | Cc1ccc2nc(C(=O)NCc3ccc(Cl)cc3)nc(NCCN(C)C)c2c1 |
| 5.05 | NCCNc1nc(/C=C/c2ccc(Cl)cc2)nc2cc3ccccc3cc12 |
| 4.55 | CN(C)CCNc1nc(/C=C/c2ccc(Cl)cc2)nc2ccc(-c3ccccc3)cc12 |
| < 3.89 | Cc1cccc2nc(/C=C/c3ccc(Cl)cc3)nc(NCCN(C)C)c12 |
| 4.31 | CN(C)CCNc1nc(/C=C/c2ccc(Cl)cc2)nc2ccc(C3=CCCCC3)cc12 |
| < 3.89 | CC(C)(C)OC(=O)NCCNc1nc(/C=C/c2ccc(Cl)cc2)nc2cc3ccccc3cc12 |
| < 3.89 | COCCCNc1nc(/C=C/c2ccc(Cl)cc2)nc2cc3ccccc3cc12 |
| < 3.89 | Cc1ccc2nc(C(=O)Nc3ccc(Cl)cc3)nc(NCCN)c2c1 |
| < 3.89 | Cc1ccc2nc(/C=C/c3ccc(Cl)cc3)nc(NCCNC(=O)OC(C)(C)C)c2c1 |
| 4.52 | CN(C)CCNc1nc(/C=C/c2ccc(Cl)cc2)nc2ccc(-c3ccncc3)cc12 |
| 4.02 | CN(C)CCNc1nc(/C=C/c2ccc(Cl)cc2)nc2ccc(I)cc12 |
| < 3.89 | CN(C)CCNc1nc(/C=C/c2ccc(Cl)cc2)nc2cc(C(F)(F)F)ccc12 |
| 4.59 | CN(C)CCOc1nc(/C=C/c2ccc(Cl)cc2)nc2cc3ccccc3cc12 |
| < 3.89 | CC(C)(C)OC(=O)CNc1nc(/C=C/c2ccc(Cl)cc2)nc2cc3ccccc3cc12 |
| < 3.89 | COCCNc1nc(/C=C/c2ccc(Cl)cc2)nc2ccc(C)cc12 |
| 4.62 | Cc1ccc2nc(/C=C/c3ccc(Cl)cc3)nc(NCCN(C)C)c2c1 |
| 4.52 | CN(C)CCNc1nc(/C=C/c2ccc(Cl)cc2)nc2ccc(Br)cc12 |
| 4.07 | CN(C)CCNc1nc(/C=C/c2ccc(Cl)cc2)nc2ccc(C(=O)c3ccccc3)cc12 |
| 4.24 | CN(C)CCNc1nc(/C=C/c2ccc(Cl)cc2)nc2ccc(-c3ccc4ccccc4c3)cc12 |
| 4.28 | C[N+](C)(C)CCNc1nc(/C=C/c2ccc(Cl)cc2)nc2cc3ccccc3cc12 |
| 4.00 | COc1cc2nc(/C=C/c3ccc(Cl)cc3)nc(NCCN(C)C)c2cc1OC |
| < 3.89 | CN(C)CCNc1nc(/C=C/c2ccc(Cl)cc2)nc2ccc(-c3cccs3)cc12 |
| < 3.89 | CSCCNc1nc(/C=C/c2ccc(Cl)cc2)nc2cc3ccccc3cc12 |
| 4.19 | CN(C)CCCNc1nc(/C=C/c2ccc(Cl)cc2)nc2cc3ccccc3cc12 |
| 4.62 | CN(C)CCNc1nc(/C=C/c2ccc(I)cc2)nc2cc3ccccc3cc12 |
| 4.57 | Cc1ccc2nc(/C=C/c3ccc(Cl)cc3)nc(NCCN)c2c1 |
| < 3.89 | CC(=O)NCCNc1nc(/C=C/c2ccc(Cl)cc2)nc2cc3ccccc3cc12 |
| 4.85 | CN(C)CCNc1nc(/C=C/c2ccc(N=[N+]=[N-])cc2)nc2cc3ccccc3cc12 |
| < 3.89 | COCCNc1nc(/C=C/c2ccc(Cl)cc2)nc2cc3ccccc3cc12 |
| < 3.89 | CN(C)CCNc1nc(/C=C/c2ccc(Cl)cc2)nc2ccccc12 |

Target: T3, Cell division protein FtsZ (Staphylococcus aureus, UniProt P0A031)
T3 sequence (P0A031 whole entry): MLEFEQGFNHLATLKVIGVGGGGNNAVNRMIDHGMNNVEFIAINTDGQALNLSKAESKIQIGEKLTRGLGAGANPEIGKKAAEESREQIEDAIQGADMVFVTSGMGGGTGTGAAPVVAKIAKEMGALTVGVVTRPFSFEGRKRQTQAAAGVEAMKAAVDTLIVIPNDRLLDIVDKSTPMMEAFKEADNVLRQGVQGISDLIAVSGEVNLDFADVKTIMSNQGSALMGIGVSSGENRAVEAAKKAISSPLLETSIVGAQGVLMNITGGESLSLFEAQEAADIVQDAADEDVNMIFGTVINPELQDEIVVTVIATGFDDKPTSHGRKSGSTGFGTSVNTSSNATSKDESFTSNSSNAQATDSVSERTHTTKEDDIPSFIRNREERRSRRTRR
Test: Activation of Staphylococcus aureus FtsZ GTPase activity

| pEC50 | SMILES |
| --- | --- |
| 5.40 | NC(=O)c1c(F)ccc(OCc2nc3cc(Cl)cnc3s2)c1F |

Target: T4, Cell division protein FtsZ (Bacillus subtilis (strain 168), UniProt P17865)
T4 sequence (P17865 whole entry): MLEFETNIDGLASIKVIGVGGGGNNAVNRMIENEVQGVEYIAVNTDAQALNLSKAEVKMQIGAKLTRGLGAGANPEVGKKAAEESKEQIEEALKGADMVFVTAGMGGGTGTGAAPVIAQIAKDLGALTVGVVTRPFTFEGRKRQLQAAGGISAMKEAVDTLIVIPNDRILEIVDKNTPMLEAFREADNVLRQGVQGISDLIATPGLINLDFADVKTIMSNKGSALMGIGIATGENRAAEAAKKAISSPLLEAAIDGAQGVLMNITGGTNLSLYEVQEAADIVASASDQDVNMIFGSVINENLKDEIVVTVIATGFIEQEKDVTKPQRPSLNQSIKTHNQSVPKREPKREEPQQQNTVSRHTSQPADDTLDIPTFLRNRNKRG
Test: Inhibition of Bacillus subtilis FtsZ GTPase activity after 5 mins by enzyme-coupled inhibition assay

| pIC50 | SMILES |
| --- | --- |
| < 3.89 | Cc1ccc2nc(/C=C/c3ccc(Br)cc3)nc(NCCN(C)C)c2c1 |
| < 3.89 | Cc1ccc2nc(-c3cc4ccccc4o3)nc(NCCN(C)C)c2c1 |
| < 3.89 | Cc1ccc2nc(NCc3ccc(Cl)cc3)nc(NCCN(C)C)c2c1 |
| < 3.89 | Cc1ccc2nc(/C=C/c3ccc(C(C)(C)C)cc3)nc(NCCN(C)C)c2c1 |
| < 3.89 | Cc1ccc2nc(N)nc(NCCN(C)C)c2c1 |
| < 3.89 | Cc1ccc2nc(-c3cccs3)nc(NCCN(C)C)c2c1 |
| < 3.89 | COc1ccc(-c2nc(NCCN(C)C)c3cc(C)ccc3n2)cc1 |
| < 3.89 | Cc1ccc2nc(-c3ccc(Cl)cc3)nc(NCCN(C)C)c2c1 |
| < 3.89 | Cc1ccc2nc(NCc3ccccc3)nc(NCCN(C)C)c2c1 |
| < 3.89 | Cc1ccc2nc(/C=C/c3ccc(C(F)(F)F)cc3)nc(NCCN(C)C)c2c1 |
| < 3.89 | Cc1ccc2nc(-c3ccc4ccccc4c3)nc(NCCN(C)C)c2c1 |
| < 3.89 | Cc1ccc2nc(/C=C/c3ccc(I)cc3)nc(NCCN(C)C)c2c1 |

Target: not listed separately
Test: Inhibition of bacterial FtsZ GTPase activity (unknown origin)

| pIC50 | SMILES |
| --- | --- |
| 4.62 | CCN(CC)CCNc1nc(/C=C/c2ccc(Cl)cc2)nc2cc3ccccc3cc12 |
| 4.92 | CN(C)CCNc1nc(/C=C/c2ccc(Cl)cc2)nc2cc3ccccc3cc12 |
